Assay results: patent US20250099596A1, “TETRAHYDRONAPHTHALENE COMPOUND, AND PREPARATION METHOD THEREFOR AND USE THEREOF IN MEDICINE” (Jiangsu Hengrui Pharmaceuticals Co., Ltd., priority 2021, published 2025)
Read-outs that look alike come from different tables or passages of the source.

Legend:
[1] = tested on: human breast cancer cell MCF-7 (Y537S) xenograft tumors; assay: Pharmacodynamic test: MCF-7 (Y537S) xenograft tumors in BEIGE SCID mice; assay type: in vivo; details: for Number of remaining animals/group / Mean tumor volume (mm^3) D 0 / Mean tumor volume (mm^3) D 28 / TGI (%) D 28: i.g., qd/28 d; for Mean tumor volume (mm^3) D 0: D 0 (day of grouping)
Description: To evaluate the inhibitory effect of the compound of the present disclosure on the growth of human breast cancer cell MCF-7 (Y537S) xenograft tumors in BEIGE SCID mice.
A 2% Tween 80+98% PEG-400 solution was used.
Animals: BEIGE SCID female mice, purchased from Beijing Vital River Laboratory Animal Technology Co., Ltd. (certificate No. SCXK (Beijing) 2016-0006), weighing about 19 g on purchase.
BEIGE SCID mice were acclimatized and then grouped as follows:
MCF-7 (Y537S) cells in the logarithmic growth phase were subcutaneously inoculated at 1.0×10^7/mouse/200 μL (containing 100 μL of matrigel) into the right flank of female BEIGE SCID mice. After 18 days, when the tumor volume of tumor-bearing mice reached about 170 mm^3, the mice were randomly divided into 4 groups of 8 by tumor volume and body weight: a vehicle control group, an Example 26-1 5 mpk group, an Example 26-1 15 mpk group, and an Example 26-1 45 mpk group. The day of grouping was set as DO, and intragastric administration was started and performed once a day for 28 days. The 28th day after administration was set as D28 (Table 7). For the tumor-bearing mice, the tumor volume was measured with a vernier caliper and the body weight was measured with a balance twice a week, and data were recorded.
All data were plotted and statistically analyzed using Excel and GraphPad Prism 8 software.
The tumor volume (V) was calculated as follows: V=1/2×a×b^2, where a and b represent length and width, respectively.
The relative tumor proliferation rate T/C (%)=(T−T0)/(C−C0)×100(%), where T and C are tumor volumes of a treatment group and the control group respectively at the end of the experiment; T0 and C0 are tumor volumes of a treatment group and the control group respectively at the beginning of the experiment.
Tumor growth inhibition ? TGI (%)=1−T/C (%), and if TGI (%) exceeds 100%, it will not be shown as a specific value but >100%.

[2] = Pharmacokinetic evaluation, beagle test; assay type: in vivo; details: beagles; for AUC(0-t): read-out: Area under curve AUC0-t; for half-life: read-out: Half-life T1/2 (converted); for Cmax: read-out: Plasma concentration Cmax
Method: With beagles as test animals, the plasma concentrations of the compound of Example 26-1 and Comparative Example 1 were determined by LC/MS/MS at different time points after intragastric (i.g.)/intravenous (i.v.) administration to beagles. The pharmacokinetic behavior of the compound of the present disclosure in beagles was studied and its pharmacokinetic profile was evaluated.
The compound of Example 26-1 and Comparative Example 1 (see patent WO2018102725A1, Example 411), whose structure is shown below:
Sixteen beagles, of which half were male and half female, were evenly divided into 4 groups. The beagles were provided by Shanghai Medicilon Inc. The 4 groups were fasted overnight and then dosed intragastrically and intravenously.
Certain amounts of the compound of Example 26-1 and the compound of Comparative Example 1 were weighed out and mixed with 5% (v/v) DMSO+30% (v/v) PG+30% (v/v) PEG400+35% (v/v) normal saline to make 0.4 mg/mL clear solutions (for the intragastric administration groups) and 0.25 mg/mL clear solutions (for the intravenous administration groups).
The intragastric administration groups: the dose was 2.0 mg/kg, and the volume was 5.0 mL/kg.
The intravenous administration groups: the dose was 0.5 mg/kg, and the volume was 2.0 mL/kg.
The intragastric administration group: Blood (1.0 mL) was collected from the jugular vein or the forelimb vein into EDTA-K2 anticoagulation tubes before administration and 0.25 h, 0.5 h, 1.0 h, 2.0 h, 4.0 h, 6.0 h, 8.0 h, 12.0 h and 24.0 h after administration and centrifuged at 10,000 rpm for 5 min (4° C.). The plasma was separated within 1 h and stored at −80° C. before analysis. The process from blood collection to centrifugation was performed in an ice bath. Three hours after administration, feeding was resumed.
The intravenous administration groups: Blood was collected before administration and 5 min, 0.25 h, 0.5 h, 1.0 h, 2.0 h, 4.0 h, 8.0 h, 12.0 h and 24 h after administration and processed as in the intragastric administration groups.
The plasma concentrations of the test compounds were determined after administration of different concentrations of the test compounds to beagles: plasma samples (50 μL) were collected from beagles at various time points after administration, and proteins were precipitated with 500 μL of methanol (containing 100 ng/mL internal standard Verapamil) for each of the samples; the mixtures were vortexed for 1 min and centrifuged at 18,000 g for 7 min. 500 μL of supernatant was transferred to a 96-well plate. 1 μL of supernatant was collected for LC/MS/MS analysis.

[3] = both sexes, beagle, dog, plasma, iv, i.v., 0.5 mg/kg
[4] = both sexes, beagle, dog, plasma, po, i.g., 2.0 mg/kg

Number of remaining animals/group ([1]; 5 mpk): 8/8 | Number of remaining animals/group ([1]; 15 mpk): 8/8 | Number of remaining animals/group ([1]; 45 mpk): 8/8 | Clearance CL/F ([2]; i.v., 0.5 mg/kg): 1.7 mL/min/kg | AUC(0-t) [2, 3]: 4070 ng·h/mL | half-life [2, 3]: 9.7 h | Cmax [2, 3]: 1600 ng/mL | Vd/F ([2]; both sexes, beagle, dog, plasma, po, i.g., 2.0 mg/kg, read-out: Apparent distribution volume Vz/F): 5.67 L/kg | AUC(0-t) [2, 4]: 4820 ng·h/mL | CL/F ([2]; both sexes, beagle, dog, plasma, po, i.g., 2.0 mg/kg, read-out: Clearance CL/F): 6.2 mL/min/kg | half-life [2, 4]: 10.4 h | Cmax [2, 4]: 436 ng/mL
SMILES: CC(C)C[C@H]1CCc2cc(O)ccc2[C@H]1c1ccc(N2CCC(CN3CCN(c4ccc5c(c4)CN([C@H]4CCC(=O)NC4=O)C5=O)CC3)CC2)cc1 [Example 26-1, (S)-3-(5-(4-((1-(4-((1R,2R)-6-Hydroxy-2-isobutyl-1,2,3,4-tetrahydronaphthalen-1-yl)phenyl)piperidin-4-yl)methyl)piperazin-1-yl)-1-oxoisoindolin-2-yl)piperidine-2,6-dione]
Effect on the body weight of BEIGE SCID mice ([1]; i.g., 5, 15, 45 mpk, qd for 28 days): did not affect mouse body weight | Mean tumor volume (mm^3) D 0 ([1]; 5 mpk): 170.2 mm^3 | Mean tumor volume (mm^3) D 28 ([1]; 5 mpk): 305.0 mm^3 | TGI (%) D 28 ([1]; 5 mpk): 72% | Mean tumor volume (mm^3) D 0 ([1]; 15 mpk): 168.2 mm^3 | Mean tumor volume (mm^3) D 28 ([1]; 15 mpk): 219.7 mm^3 | TGI (%) D 28 ([1]; 15 mpk): 89% | Mean tumor volume (mm^3) D 0 ([1]; 45 mpk): 168.6 mm^3 | Mean tumor volume (mm^3) D 28 ([1]; 45 mpk): 192.0 mm^3 | TGI (%) D 28 ([1]; 45 mpk): 95%
